# Data from patent US20150239889A1, “PYRAZOLOPYRIMIDINE COMPOUND” (MITSUBISHI TANABE PHARMA CORPORATION, priority 2012, published 2015).
# How the values were obtained:
# human HIF-PHD3 = molecular target: T1, human HIF-PHD3 (Homo sapiens, UniProt Q9H6Z9); test: HIF-PHD inhibition assay (fluorescence polarization), human HIF-PHD3; format: biochemical; conditions: 2-oxoglutaric acid 166 μmol/L
# T1 construct: purchased CrystalGenomics Ltd
# Method in brief: (§1)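 Activity was derived as the fluorescence polarization (mP) after enzyme addition minus that measured before enzyme addition. Probe bore a 5′-fluoresceinamide (FAM) label with an aminocaproic acid (ACA) linker.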
# human HIF-PHD2 = molecular target: T2, human HIF-PHD2 (Homo sapiens, UniProt Q9GZT9); test: HIF-PHD inhibition assay (fluorescence polarization), human HIF-PHD2; format: biochemical; conditions: 2-oxoglutaric acid 3.33 μmol/L
# T2 construct: purchased CrystalGenomics Ltd
# T2 sequence (Q9GZT9 2-426 limits assumed): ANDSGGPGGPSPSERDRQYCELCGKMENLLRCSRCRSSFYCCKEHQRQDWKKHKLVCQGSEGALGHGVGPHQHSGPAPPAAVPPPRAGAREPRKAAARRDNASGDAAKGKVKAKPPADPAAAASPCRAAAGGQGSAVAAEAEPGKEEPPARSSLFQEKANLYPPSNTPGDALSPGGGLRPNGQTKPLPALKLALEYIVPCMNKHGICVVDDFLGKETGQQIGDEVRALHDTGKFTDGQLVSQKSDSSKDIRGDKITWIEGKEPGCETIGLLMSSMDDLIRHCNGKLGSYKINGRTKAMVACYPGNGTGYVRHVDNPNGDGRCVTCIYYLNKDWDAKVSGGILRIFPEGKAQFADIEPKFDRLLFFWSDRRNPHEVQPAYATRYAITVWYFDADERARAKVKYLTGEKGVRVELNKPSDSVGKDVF
# Method in brief: as §1
# Hep3B cells = test: EPO production assay (ELISA of culture supernatant); format: cell-based; conditions: Homo sapiens, 3 μmol/L test compound, 48 hours, relative to control (0.1% DMSO), read-out: EPO production stimulation rate with 3 μmol/L test compound
# Experimental: The stimulatory effect of the compound onEPO production was determined as follows using Hep3B cells.
# Cells were seeded on 96 well plates at 40000 cells/well, and the plate was incubated overnight in MEM medium containing 10% fetal bovine serum (FBS) at 37° C. under 5% CO2. The next day, the medium was replaced with MEM containing 0.5% FBS, followed by addition of test compound. The test compound was dissolved in dimethyl sulfoxide and added to the cell so that the final concentration of dimethyl sulfoxide was 0.1%. After incubation for additional 48 hours, the culture supernatant was collected, and EPO contained in the supernatant was determined using ELISA kit (EPO ELISA Kit 11-693-417-001, Roche Co.). The results were expressed as stimulation rate of EPO production (fold), which was calculated as the relative value of the EPO production with 3 μmol/L of the test compound compared to the EPO production without stimulation (control).
# Stimulation rate of EPO production (fold)=(EPO production with addition of test compound)/(EPO production of control)
# T1 sequence (Q9H6Z9 whole entry): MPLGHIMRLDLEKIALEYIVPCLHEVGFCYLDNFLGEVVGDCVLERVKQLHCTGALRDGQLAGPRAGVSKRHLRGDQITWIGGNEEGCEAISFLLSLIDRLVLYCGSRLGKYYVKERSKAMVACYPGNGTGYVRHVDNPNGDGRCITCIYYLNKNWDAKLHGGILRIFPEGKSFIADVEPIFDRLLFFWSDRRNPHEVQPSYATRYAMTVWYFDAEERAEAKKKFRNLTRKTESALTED
Structure (SMILES),IC50 (human HIF-PHD3),IC50 (human HIF-PHD2),fold induction at 3 µM (Hep3B cells)
O=C(O)c1cnn(-c2nc(O)c3c(cnn3Cc3cc(C(F)(F)F)cc(Cl)c3F)n2)c1 [Example 4],780 nM,27 nM,1.7
O=C(O)c1cnn(-c2nc(O)c3c(cnn3Cc3ccc(-c4ccccc4F)cc3)n2)c1 [Example 56],260 nM,16 nM,19
O=C(O)c1cnn(-c2nc(O)c3c(n2)c(F)nn3C[C@H]2CC[C@H](C(F)(F)F)CC2)c1 [Example 465],210 nM,11 nM,2.5
O=C(O)c1cnn(-c2nc(O)c3c(cnn3Cc3ccc(-c4ccccc4C(F)(F)F)cc3)n2)c1 [Example 61],180 nM,12 nM,6
O=C(O)c1cnn(-c2nc(O)c3nn(CCc4ccc5ccccc5c4)cc3n2)c1 [Example 243],260 nM,57 nM,1.6
O=C(O)c1cnn(-c2nc(O)c3c(cnn3CCCOc3ccc(C(F)(F)F)cc3)n2)c1 [Example 175],390 nM,21 nM,15
O=C(O)c1cnn(-c2nc(O)c3c(cnn3Cc3ccc(-c4ccccc4F)cc3C(F)(F)F)n2)c1 [Example 89],1300 nM,48 nM,16
O=C(O)c1cnn(-c2nc(O)c3c(cnn3CCC(c3ccccc3)c3ccccc3)n2)c1 [Example 134],360 nM,23 nM,25
C[C@H](c1ccc(-c2ccccc2F)cc1)n1ncc2nc(-n3cc(C(=O)O)cn3)nc(O)c21 [Example 111],> 1000 nM,25 nM,36
C[C@H]1CC[C@H](Cn2nc(Cl)c3nc(-n4cc(C(=O)O)cn4)nc(O)c32)CC1 [Example 223],950 nM,28 nM,3.2
O=C(O)c1cnn(-c2nc(O)c3c(cnn3Cc3ccc(-c4ccc(F)cc4F)nc3)n2)c1 [Example 104],110 nM,10 nM,5.4
C[C@H](c1ccc2ccccc2c1)n1ncc2nc(-n3cc(C(=O)O)cn3)nc(O)c21 [Example 30],460 nM,72 nM,5.5
Cc1nn(Cc2ccc(C(F)(F)F)cc2)c2c(O)nc(-n3cc(C(=O)O)cn3)nc12 [Example 444],360 nM,37 nM,2.2
O=C(O)c1cnn(-c2nc(O)c3c(cnn3CCc3ccc4ccccc4c3)n2)c1 [Example 116],190 nM,21 nM,4
O=C(O)c1cnn(-c2nc(O)c3c(cnn3Cc3ccc(-c4ccccc4Cl)cc3)n2)c1 [Example 62],140 nM,17 nM,12
COc1ccc(Cn2ncc3nc(-n4cc(C(=O)O)cn4)nc(O)c32)cc1 [Example 3],160 nM,31 nM,2.1
C[C@H](c1ccc(Cl)cc1)n1ncc2nc(-n3cc(C(=O)O)cn3)nc(O)c21 [Example 20],1200 nM,65 nM,5.5
O=C(O)c1cnn(-c2nc(O)c3c(cnn3Cc3ccc(Cl)cc3)n2)c1 [Example 13],230 nM,20 nM,4.3
Cc1c(CCn2ncc3nc(-n4cc(C(=O)O)cn4)nc(O)c32)ccc2ccccc12 [Example 126],420 nM,51 nM,5.2
CC1(C)C(Cn2ncc3nc(-n4cc(C(=O)O)cn4)nc(O)c32)C1(C)C [Example 162],400 nM,52 nM,18
C[C@@H](C1CCCCC1)n1ncc2nc(-n3cc(C(=O)O)cn3)nc(O)c21 [Example 144],1300 nM,15 nM,4.3
O=C(O)c1cnn(-c2nc(O)c3c(n2)c(Cl)nn3Cc2ccc(Br)cc2)c1 [Example 220],340 nM,14 nM,4
O=C(O)c1cnn(-c2nc(O)c3nn(Cc4ccc(-c5ccccc5)cc4F)cc3n2)c1 [Example 245],68 nM,2.3 nM,6.2
O=C(O)c1cnn(-c2nc(O)c3c(cnn3CCc3ccc4ccccc4n3)n2)c1 [Example 117],520 nM,37 nM,2
COc1ccc(Cn2cc3nc(-n4cc(C(=O)O)cn4)nc(O)c3n2)cc1 [Example 236],77 nM,11 nM,0.91

Structure (SMILES),IC50 (human HIF-PHD3),IC50 (human HIF-PHD2),fold induction at 3 µM (Hep3B cells)
O=C(O)c1cnn(-c2nc(O)c3c(cnn3CCCOc3ccc4ccccc4c3)n2)c1 [Example 187],220 nM,12 nM,10
O=C(O)c1cnn(-c2nc(O)c3c(cnn3CCCOc3ccc(Cl)c(C(F)(F)F)c3)n2)c1 [Example 177],170 nM,28 nM,9.1
O=C(O)c1cnn(-c2nc(O)c3c(cnn3C[C@H]3CC[C@H](Oc4ccc(C(F)(F)F)cc4)CC3)n2)c1 [Example 152],140 nM,20 nM,20
CCc1ccc2cc(CCn3ncc4nc(-n5cc(C(=O)O)cn5)nc(O)c43)ccc2c1 [Example 128],180 nM,12 nM,168
O=C(O)c1cnn(-c2nc(O)c3c(n2)c(F)nn3CC2CCCCC2)c1 [Example 217],920 nM,32 nM,2.4
Cc1ccccc1-c1ccc(Cn2ncc3nc(-n4cc(C(=O)O)cn4)nc(O)c32)cc1F [Example 102],150 nM,19 nM,9.8
O=C(O)c1cnn(-c2nc(O)c3c(cnn3Cc3cc(F)cc(C(F)(F)F)c3)n2)c1 [Example 8],560 nM,48 nM,5.4
O=C(O)c1cnn(-c2nc(O)c3c(cnn3Cc3ccccc3-c3ccccc3)n2)c1 [Example 38],1800 nM,150 nM,2.9
O=C(O)c1cnn(-c2nc(O)c3c(cnn3Cc3cccc(-c4ccccc4C(F)(F)F)c3)n2)c1 [Example 47],650 nM,77 nM,4.4
O=C(O)c1cnn(-c2nc(O)c3c(cnn3CCOc3ccc(C(F)(F)F)cc3)n2)c1 [Example 203],170 nM,65 nM,4.5
O=C(O)c1cnn(-c2nc(O)c3c(cnn3CCCOc3cccc4ccccc34)n2)c1 [Example 192],350 nM,28 nM,3.5
CC(C)(Cn1ncc2nc(-n3cc(C(=O)O)cn3)nc(O)c21)c1ccc2ccccc2c1 [Example 118],320 nM,45 nM,17
C[C@H](c1ccc(-c2ccccc2)cc1)n1ncc2nc(-n3cc(C(=O)O)cn3)nc(O)c21 [Example 109],260 nM,24 nM,20
O=C(O)c1cnn(-c2nc(O)c3nn(Cc4ccc(Cl)c(Cl)c4)cc3n2)c1 [Example 235],13 nM,3 nM,1.9
CC(C)(C)[C@H]1CC[C@H](Cn2ncc3nc(-n4cc(C(=O)O)cn4)nc(O)c32)CC1 [Example 142],360 nM,25 nM,15
C[C@@H](c1ccccc1)n1ncc2nc(-n3cc(C(=O)O)cn3)nc(O)c21 [Example 17],480 nM,65 nM,3.2
CCC(CC)Cn1nc(F)c2nc(-n3cc(C(=O)O)cn3)nc(O)c21 [Example 498],310 nM,49 nM,2.7
O=C(O)c1cnn(-c2nc(O)c3c(cnn3Cc3ccc(-c4c(F)cccc4F)cc3F)n2)c1 [Example 81],170 nM,35 nM,5.4
O=C(O)c1cnn(-c2nc(O)c3c(cnn3Cc3ccc(C(F)(F)F)c(Cl)c3)n2)c1 [Example 6],130 nM,41 nM,6.1
Cc1nn(Cc2ccc(-c3ccccc3)cc2)c2c(O)nc(-n3cc(C(=O)O)cn3)nc12 [Example 228],68 nM,10 nM,3.9
CC(C)(Cn1ncc2nc(-n3cc(C(=O)O)cn3)nc(O)c21)c1ccc(Cl)cc1 [Example 120],890 nM,54 nM,9.7
O=C(O)c1cnn(-c2nc(O)c3c(cnn3CCOc3ccc4c(c3)CCCC4)n2)c1 [Example 208],240 nM,14 nM,7.1
O=C(O)c1cnn(-c2nc(O)c3c(cnn3C[C@H]3CC[C@@H](Oc4ccc(F)cc4)CC3)n2)c1 [Example 150],410 nM,39 nM,9
O=C(O)c1cnn(-c2nc(O)c3c(n2)c(F)nn3Cc2ccc3ccccc3c2)c1 [Example 216],300 nM,15 nM,1.5
